16 molecules from US20260241012A1, “1,8-NAPHTHYRIDIN-2-ONE HETEROBIFUNCTIONAL BCL6 DEGRADERS” (Treeline Biosciences, Inc., priority 2022, published 2026) can be followed below.

The target of the assay is T1, N-terminal HiBiT tagged BCL6 (Homo sapiens, UniProt P41182).
T1 construct: expressed in transfected cells; host or cells: HT1080 (ATCC CCL-121), stably transduced with lentivirus pLV-UBC-N-HiBiT-BCL6-PGK-puro
Kind of assay: HiBiT based degradation assay. The class given is cell-based. The settings on record: HT1080 cells expressing N-terminal HiBiT tagged BCL6, 5 hours of incubation; for Ymin (5 hr): BCL6 degradation normalized with DMSO control; for DC50: four-parameter logistic model, read-out: EC50 (5 hr). The essentials:
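Degradation measured by luminescence from the Nano-Glo HiBiT lytic reagent (15 min, room temperature), normalized to DMSO controls and fitted to a four-parameter curve.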

As to `CNC(=O)COc1cc2cc(Nc3nc(N4CCC(CN5CCN(c6cccc7c(C8CCC(=O)NC8=O)nn(C)c67)C[C@@H]5C)CC4)ncc3F)cnc2n(C(C)C)c1=O` (stereo partly drawn) [Compound 188b, 2-[[6-[[2-[4-[[(2S)-4-[3-(2,6-dioxo-3-piperidyl)-1-methyl-indazol-7-yl]-2-methyl-piperazin-1-yl]methyl]-1-piperidyl]-5-fluoro-pyrimidin-4-yl]amino]-1-isopropyl-2-oxo-1,8-naphthyridin-3-yl]oxy]-N-methyl-acetamide], the “Ymin (5 hr)” value is recorded as “++++ (Ymin < 30%)” and the DC50 fell in the range of 10 to 100 nM.
The like results for `CNC(=O)COc1cc2cc(Nc3nc(N4CCC(F)(CN5CCN(c6cccc7c(C8CCC(=O)NC8=O)nn(C)c67)C[C@@H]5C)CC4)ncc3Cl)cnc2n(C(C)C)c1=O` (stereo partly drawn) [Compound 189a, 2-[[6-[[5-chloro-2-[4-[[(2S)-4-[3-(2,6-dioxo-3-piperidyl)-1-methyl-indazol-7-yl]-2-methyl-piperazin-1-yl]methyl]-4-fluoro-1-piperidyl]pyrimidin-4-yl]amino]-1-isopropyl-2-oxo-1,8-naphthyridin-3-yl]oxy]-N-methyl-acetamide] were, in that order, “++++ (Ymin < 30%)” and 10 to 100 nM.
Take `CNC(=O)COc1cc2cc(Nc3cc(N4CCC(CN5CCN(c6ccc7c(C8CCC(=O)NC8=O)nn(C)c7c6)CC5)CC4)ncc3Cl)cnc2n(C(C)C)c1=O` (centres unmarked) [Compound 190, 2-[[6-[[5-chloro-2-[4-[[4-[3-(2,6-dioxo-3-piperidyl)-1-methyl-indazol-6-yl]piperazin-1-yl]methyl]-1-piperidyl]-4-pyridyl]amino]-1-isopropyl-2-oxo-1,8-naphthyridin-3-yl]oxy]-N-methyl-acetamide]: the “Ymin (5 hr)” value is given as “++ (50% ≤ Ymin < 70%)” and the DC50 was 10 to 100 nM.
In the case of `CNC(=O)COc1cc2cc(Nc3nc(N4CCN(CC5CCN(c6cccc7c(C8CCC(=O)NC8=O)nn(C)c67)CC5)C5(CC5)C4)ncc3Cl)cnc2n(C(C)C)c1=O` (centres unmarked) [Compound 191, 2-[[6-[[5-chloro-2-[4-[[1-[3-(2,6-dioxo-3-piperidyl)-1-methyl-indazol-7-yl]-4-piperidyl]methyl]-4,7-diazaspiro[2.5]octan-7-yl]pyrimidin-4-yl]amino]-1-isopropyl-2-oxo-1,8-naphthyridin-3-yl]oxy]-N-methyl-acetamide], the “Ymin (5 hr)” value is recorded as “+++ (30% ≤ Ymin < 50%)” and the DC50 lay in the range of 10 to 100 nM.
As to `CNC(=O)COc1cc2cc(Nc3nc(N4CCC(CN5CCN(c6cccc7c(C8CCC(=O)NC8=O)nn(C)c67)C[C@@H]5C)CC4)ncc3Cl)cnc2n(C(C)C)c1=O` (stereo partly drawn) [Compound 192a, 2-[[6-[[5-chloro-2-[4-[[(2S)-4-[3-(2,6-dioxo-3-piperidyl)-1-methyl-indazol-7-yl]-2-methyl-piperazin-1-yl]methyl]-1-piperidyl]pyrimidin-4-yl]amino]-1-isopropyl-2-oxo-1,8-naphthyridin-3-yl]oxy]-N-methyl-acetamide], the “Ymin (5 hr)” value is “++++ (Ymin < 30%)” and the DC50 lay in the range of 10 to 100 nM.
As to `CNC(=O)COc1cc2cc(Nc3nc(N4CCC(CN5CCN(c6cccc7c(C8CCC(=O)NC8=O)nn(C)c67)C[C@H]5C)CC4)ncc3Cl)cnc2n(C(C)C)c1=O` (stereo partly drawn) [Compound 192b, 2-[[6-[[5-chloro-2-[4-[[(2R)-4-[3-(2,6-dioxo-3-piperidyl)-1-methyl-indazol-7-yl]-2-methyl-piperazin-1-yl]methyl]-1-piperidyl]pyrimidin-4-yl]amino]-1-isopropyl-2-oxo-1,8-naphthyridin-3-yl]oxy]-N-methyl-acetamide], the “Ymin (5 hr)” value is “++++ (Ymin < 30%)” and the DC50 was 10 to 100 nM.
The like results for `CNC(=O)COc1cc2cc(Nc3nc(N4CCC(CN5CCN(c6ccc7c(C8CCC(=O)NC8=O)nn(C)c7c6)CC5(C)C)CC4)ncc3Cl)cnc2n(C(C)C)c1=O` (centres unmarked) [Compound 196, 2-((6-((5-chloro-2-(4-((4-(3-(2,6-dioxopiperidin-3-yl)-1-methyl-1H-indazol-6-yl)-2,2-dimethylpiperazin-1-yl)methyl)piperidin-1-yl)pyrimidin-4-yl)amino)-1-isopropyl-2-oxo-1,2-dihydro-1,8-naphthyridin-3-yl)oxy)-N-methylacetamide] were, in that order, “+++ (30% ≤ Ymin < 50%)” and less than 10 nM.
The like results for `CNC(=O)COc1cc2cc(Nc3nc(N4CCC(CN5[C@H](C)CN(c6cccc7c(C8CCC(=O)NC8=O)nn(C)c67)C[C@@H]5C)CC4)ncc3Cl)cnc2n(C(C)C)c1=O` (stereo partly drawn) [Compound 197a, 2-[[6-[[5-chloro-2-[4-[[(2R,6S)-4-[3-(2,6-dioxo-3-piperidyl)-1-methyl-indazol-7-yl]-2,6-dimethyl-piperazin-1-yl]methyl]-1-piperidyl]pyrimidin-4-yl]amino]-1-isopropyl-2-oxo-1,8-naphthyridin-3-yl]oxy]-N-methyl-acetamide] were, in that order, “+++ (30% ≤ Ymin < 50%)” and 10 to 100 nM.
In the case of `CNC(=O)COc1cc2cc(Nc3nc(N4CCC(CN5[C@@H](C)CN(c6cccc7c(C8CCC(=O)NC8=O)nn(C)c67)C[C@@H]5C)CC4)ncc3Cl)cnc2n(C(C)C)c1=O` (stereo partly drawn) [Compound 197b, 2-[[6-[[5-chloro-2-[4-[[(2S,6S)-4-[3-(2,6-dioxo-3-piperidyl)-1-methyl-indazol-7-yl]-2,6-dimethyl-piperazin-1-yl]methyl]-1-piperidyl]pyrimidin-4-yl]amino]-1-isopropyl-2-oxo-1,8-naphthyridin-3-yl]oxy]-N-methyl-acetamide], the “Ymin (5 hr)” value is on record as “++++ (Ymin < 30%)” and the DC50 was 10 to 100 nM.
`CNC(=O)COc1cc2cc(Nc3nc(N4CC5(CCC(Nc6ccc(F)c7c(C8CCC(=O)NC8=O)nn(C)c67)CC5)C4)ncc3Cl)cnc2n(C(C)C)c1=O` (centres unmarked) [Compound 198, 2-[[6-[[5-chloro-2-[7-[[3-(2,6-dioxo-3-piperidyl)-4-fluoro-1-methyl-indazol-7-yl]amino]-2-azaspiro[3.5]nonan-2-yl]pyrimidin-4-yl]amino]-1-isopropyl-2-oxo-1,8-naphthyridin-3-yl]oxy]-N-methyl-acetamide]: the “Ymin (5 hr)” value is recorded as “++ (50% ≤ Ymin < 70%)” and the DC50 lay within 10 to 100 nM.
For the molecule `CNC(=O)COc1cc2cc(Nc3nc(N4CCC5(CCC(Nc6ccc7c(C8CCC(=O)NC8=O)nn(C)c7c6)CC5)CC4)ncc3Cl)cnc2n(C(C)C)c1=O` (centres unmarked) [Compound 199, 2-[[6-[[5-chloro-2-[9-[[3-(2,6-dioxo-3-piperidyl)-1-methyl-indazol-6-yl]amino]-3-azaspiro[5.5]undecan-3-yl]pyrimidin-4-yl]amino]-1-isopropyl-2-oxo-1,8-naphthyridin-3-yl]oxy]-N-methyl-acetamide], the “Ymin (5 hr)” value is listed as “++++ (Ymin < 30%)” and the DC50 is less than 10 nM.
Take `CNC(=O)COc1cc2cc(Nc3nc(N4CCC(CN5CCN(c6cccc7c(C8CCC(=O)NC8=O)nn(C)c67)CC5(C)C)CC4)ncc3Cl)cnc2n(C(C)C)c1=O` (centres unmarked) [Compound 200, 2-[[6-[[5-chloro-2-[4-[[4-[3-(2,6-dioxo-3-piperidyl)-1-methyl-indazol-7-yl]-2,2-dimethyl-piperazin-1-yl]methyl]-1-piperidyl]pyrimidin-4-yl]amino]-1-isopropyl-2-oxo-1,8-naphthyridin-3-yl]oxy]-N-methyl-acetamide]: the “Ymin (5 hr)” value is on record as “+++ (30% ≤ Ymin < 50%)” and the DC50 lay in the range of 10 to 100 nM.
On the same counts, the results for `CNC(=O)COc1cc2cc(Nc3nc(N4CC5(CC(Nc6ccc7c(C8CCC(=O)NC8=O)nn(C)c7c6)C5)C4)ncc3Cl)cnc2n(C(C)C)c1=O` (centres unmarked) [Compound 202, 2-[[6-[[5-chloro-2-[6-[[3-(2,6-dioxo-3-piperidyl)-1-methyl-indazol-6-yl]amino]-2-azaspiro[3.3]heptan-2-yl]pyrimidin-4-yl]amino]-1-isopropyl-2-oxo-1,8-naphthyridin-3-yl]oxy]-N-methyl-acetamide] are “++++ (Ymin < 30%)” and less than 10 nM.
For `CNC(=O)COc1cc2cc(Nc3nc(N4CCC(O)(CN5CCC(c6cccc7c(C8CCC(=O)NC8=O)nn(C)c67)CC5)CC4)ncc3Cl)cnc2n(C(C)C)c1=O` (centres unmarked) [Compound 203, 2-[[6-[[5-chloro-2-[4-[[4-[3-(2,6-dioxo-3-piperidyl)-1-methyl-indazol-7-yl]-1-piperidyl]methyl]-4-hydroxy-1-piperidyl]pyrimidin-4-yl]amino]-1-isopropyl-2-oxo-1,8-naphthyridin-3-yl]oxy]-N-methyl-acetamide], the “Ymin (5 hr)” value is listed as “++++ (Ymin < 30%)” and the DC50 is less than 10 nM.
`CNC(=O)COc1cc2cc(Nc3nc(N4CCC5(CCC(CN6CCN(c7ccc8c(C9CCC(=O)NC9=O)nn(C)c8c7)CC6)CC5)CC4)ncc3Cl)cnc2n(C(C)C)c1=O` (centres unmarked) [Compound 204, 2-((6-((5-chloro-2-(9-((4-(3-(2,6-dioxopiperidin-3-yl)-1-methyl-1H-indazol-6-yl)piperazin-1-yl)methyl)-3-azaspiro[5.5]undecan-3-yl)pyrimidin-4-yl)amino)-1-isopropyl-2-oxo-1,2-dihydro-1,8-naphthyridin-3-yl)oxy)-N-methylacetamide]: the “Ymin (5 hr)” value is on record as “++++ (Ymin < 30%)” and the DC50 was 10 to 100 nM.
`CNC(=O)COc1cc2cc(Nc3nc(N4CC5(CCC(CN6CCN(c7ccc8c(C9CCC(=O)NC9=O)nn(C)c8c7)CC6)CC5)C4)ncc3Cl)cnc2n(C(C)C)c1=O` (centres unmarked) [Compound 205, 2-((6-((5-chloro-2-(7-((4-(3-(2,6-dioxopiperidin-3-yl)-1-methyl-1H-indazol-6-yl)piperazin-1-yl)methyl)-2-azaspiro[3.5]nonan-2-yl)pyrimidin-4-yl)amino)-1-isopropyl-2-oxo-1,2-dihydro-1,8-naphthyridin-3-yl)oxy)-N-methylacetamide]: the “Ymin (5 hr)” value is on record as “++++ (Ymin < 30%)” and the DC50 is less than 10 nM.
